Reference: patent US7541156B1, “Method of identifying antinociceptive compounds using protease activated receptor-2” (priority 2000, dated 2009)
Entries after “also recorded” stand apart in the source; their conditions may differ.

Key:
PAR-2 = target: T1, PAR-2 (Rattus norvegicus, UniProt Q63645); assay: Intracellular Ca2+ response of primary neuronal cultures; assay type: cell-based; conditions: primary neuronal cultures of adult rat DRGs
T1 construct: assessing the response of primary neuronal cultures to trypsin and AcPep; endogenous in cells; host or cells: primary cultures of adult Sprague-Dawley rat DRG neurons
T1 sequence (Q63645 26-397): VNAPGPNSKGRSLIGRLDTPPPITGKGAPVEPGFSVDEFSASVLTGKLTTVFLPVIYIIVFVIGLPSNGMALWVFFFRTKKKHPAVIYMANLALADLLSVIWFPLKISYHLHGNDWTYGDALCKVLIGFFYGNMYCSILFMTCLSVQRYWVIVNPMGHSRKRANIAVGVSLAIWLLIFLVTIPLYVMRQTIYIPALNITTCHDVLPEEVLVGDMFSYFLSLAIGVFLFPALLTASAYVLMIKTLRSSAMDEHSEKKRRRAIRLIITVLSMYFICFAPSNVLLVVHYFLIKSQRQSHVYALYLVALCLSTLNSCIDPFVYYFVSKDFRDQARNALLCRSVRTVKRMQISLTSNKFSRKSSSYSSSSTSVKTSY
From the text: In the results which follow, it is shown that activated proteases can have direct effects on sensory neurons, mediated by specific receptors. PAR-1 and PAR-2 are present in rat DRGs (Young et al. 2000). The presence of one of these receptors, PAR-2, in sensory neurons is first confirmed by finding evidence of mRNA and protein expression in adult rat thoracic DRGs. The functional implications of PAR-2 expression are then examined by assessing the response of primary neuronal cultures to trypsin and AcPep. Both agonists increased intracellular Ca^2+ confirming previously reported findings that a functional PAR 2 receptor is present in adult rat DRGs (Steinhoff et al. 2000). Trypsin stimulates both PAR-1 and PAR-2 and therefore an increase in intracellular Ca^2+ can be caused by activation of the two different receptors. […] Therefore the increased intracellular Ca^2+ response to AcPep reflects specific PAR-2 mediated activation.
Cell Culture. Primary cultures of rat DRG neurons were prepared from male adult Sprague Dawley rats (200-250 gm). Following enzymatic treatment and dissociation, neurons were spun through a percoll cushion (Hofbauer et al. 1998) and were plated at a density of 10,000-20,000 neurons/well of a 48 well tissue culture plate. […]

[1] = test system: peripheral afferent nerve endings; conditions: subcutaneous injection of 500 μg into the rat paw; cited from earlier work
[2] = test system: cultured adult rat thoracic DRG neurons; assay: CGRP release assay in cultured DRG neurons; assay type: cell-based
Method: Cell Culture. Primary cultures of rat DRG neurons were prepared from male adult Sprague Dawley rats (200-250 gm). Following enzymatic treatment and dissociation, neurons were spun through a percoll cushion (Hofbauer et al. 1998) and were plated at a density of 10,000-20,000 neurons/well of a 48 well tissue culture plate. Cultures were maintained in DME+10% FCS supplemented with penicillin/streptomycin, 150 μM uridine and 50 μM 5-fluoro-2-deoxyuridine (Nguyen et al. 1999). NGF (murine, recombinant, 2.5S; Promega, Madison, Wis.) was used at 50 ng/ml. Neurons were treated for five days before release experiments or Calcium-imaging studies were performed.
CGRP release assay. Immunoreactive calcitonin gene-related peptide (IR-CGRP) release from DRG cultures was performed as described by Hingtgen et al. (1995). Briefly, neuron cultures were washed with Release Buffer (RB) (25 mM Hepes, pH 7.4, 135 mM NaCl, 3.5 mM KCl, 2.5 mM CaCl2, 1 mM MgCl2, 3.3 mM Glucose, 0.1% BSA, 1 μM phosphoamidon), and were incubated for 10 min at 37° C. in RB plus 0.1% ethanol (Capsaicin vehicle) to measure basal CGRP release. Fresh RB containing the appropriate concentration of activating peptide (AcPep) or control peptide (CoPep) was added for an additional 10 minutes. Peptide treatment was followed by a 10 minute incubation with an appropriate dose of Capsaicin or KCl. IR-CGRP released by neurons was measured by ELISA. Activating peptide and control peptide were prepared by standard solid phase synthesis procedures by the UTMB Core Protein Facility.
CGRP Quantification. CGRP was quantified in a standard sandwich ELISA. In brief, 96-well “U” bottom microtiter ELISA plates (Dynex, Chantilly, Va.) were coated with affinity purified polyclonal rabbit antibody to rat CGRP (Peninsula Labs, Belmont, Calif.) at 3 μg/ml in 0.125M borate buffered saline (pH 8.1) (100 μl/well). The plates were incubated overnight at 37° C. The next day, the plates were washed three times with saline containing 0.05% Tween-20. Purified rat CGRP (Peninsula Labs) was used at a previously standardized concentration range of 25-1 ng/ml in a four-fold dilution to generate a standard curve. An equal volume of the sample was added in duplicate to a seventy-five μl/well of Tween-PBS (pH 7.1) and the plates were incubated for two hours on a shaker at room temperature. The plates were washed 3 times with Tween-PBS and 100 μl/well (0.2 mg/ml; 1:500 dilution) of in-house biotinylated, rabbit anti rat CGRP IgG (Peninsula Labs) was applied and incubated for two hours at room temperature. After three washes 150 μl of 1:1000 diluted streptavidine-horseradish peroxidase conjugate (Zymed, San Fransisco, Calif.) was added to each well and the plates were incubated for 90 min at room temperature. One-hundred-fifty μl/well of the substrate ortho-phenylene diamine dihydrochloride (Sigma Chemicals, St. Louis, Mo.) 0.4 mg/ml in citrate buffer (pH 4.9) was added after plates were washed three more times. Forty μl/100 ml of 30% H2O2 was added fresh to the citrate buffer just before adding to the wells to activate the coloring reaction. The reaction was stopped with 5N H2SO4 (50 μl/well) and the plates were read at 490 nm in an automated ELISA reader (Bio-Tek Instruments, Inc., Winooski, VE). The OD values were plotted against the CGRP standard curve and CGRP immunoreactivity was quantified using the appropriate formula and expressed as nanogram/ml.
Statistics. Release data are presented as the mean± standard error of the mean (SEM) of wells from three separate experiments. To compare the effects of activating peptide and control peptide on subsequent evoked release, an overall test based on the analysis of variance was performed (ANOVA). […] Intraductal injection studies were analyzed using a repeated measure ANOVA and individual means were compared using a Newman-Keuls multiple comparison test. Significance levels were set at p<0.05. […]

SLIGRL (PEPTIDE (1)..(6) PAR-2 activating peptide; listed as Rattus sp.) [AcPep]
intracellular Ca2+ (PAR-2): increased
release of CGRP and Substance P from peripheral afferent nerve endings [1]: results in the release of CGRP and Substance P
CGRP release induced by Capsaicin (50 nM) ([2]; 10 min pretreatment with peptide 10 μM, then Capsaicin 50 nM for 10 min in presence of peptide, mean of wells, three experiments): 7.3 ng/mL
CGRP release induced by KCl (70 mM) ([2]; 10 min pretreatment with peptide 10 μM, then KCl 70 mM for 10 min in presence of peptide, mean of wells, three experiments): 2.7 ng/mL
CGRP release by peptide alone (basal release) ([2]; peptide 10 μM alone, 10 minute incubation): did not significantly increase CGRP release; also recorded: does not induce CGRP release; also recorded: no effect on basal CGRP release
KCl evoked IR-CGRP release, in words, versus CoPep ([2]; pre-treatment 10 μM for 10 minutes, KCl 70 mM): significantly higher increase; also recorded: significantly enhances
Capsaicin-evoked CGRP release, in words, versus CoPep ([2]; pretreatment 10 μM for 10 minutes, Capsaicin 50 nM): significant increase; also recorded: significantly enhances
